The results in this text go back to publication PMC5547389, “Structure-activity relationships and molecular docking studies of chromene and chromene based azo chromophores: A novel series of potent antimicrobial and anticancer agents” (EXCLI Journal, 2017).

The subject of data set [1] is Aspergillus fumigatus (RCMB 02568). The data set can be described thus: Well diffusion assay (inhibition zone). Particulars: RCMB02568, 5 mg/mL in DMSO, fungi, read-out: Inhibition Zone (IZ) diameter, A.F. The data set is classed as cell-based. Summed up: (§1)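 Agar well diffusion with 10 mm wells, nutrient agar for bacteria and malt extract agar for fungi. Plates were incubated 24-48 h at 37 °C for bacteria or 28 °C for fungi. Inhibition zone diameters were measured in mm, in triplicate.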

The test system of data set [2] is Bacillus subtilis (RCMB 010067). The data set can be described thus: Well diffusion assay (inhibition zone). The data set is classed as cell-based. The following applies: RCMB010067, 5 mg/mL in DMSO, Gm+ve, read-out: Inhibition Zone (IZ) diameter, B.S. The gist of the method:
as §1
Background: Agar diffusion results depend on both activity and mobility in agar.

The subject of data set [3] is Escherichia coli (RCMB 010052). Put plainly: Well diffusion assay (inhibition zone). The following applies: RCMB010052, 5 mg/mL in DMSO, Gm-ve, read-out: Inhibition Zone (IZ) diameter, E.C. The data set is classed as cell-based. The gist of the method: as §1
Data set [4] has as its system Streptococcus pneumoniae (RCMB 010010). The data set can be described thus: Well diffusion assay (inhibition zone). Format: cell-based. The following applies: RCMB010010, 5 mg/mL in DMSO, Gm+ve, read-out: Inhibition Zone (IZ) diameter, S.P. The gist of the method:
as §1

Data set [5] has as its system Syncephalastrum racemosum (RCMB 05922). The data set can be described thus: Well diffusion assay (inhibition zone). The following applies: RCMB05922, 5 mg/mL in DMSO, fungi, read-out: Inhibition Zone (IZ) diameter, S.R. Format: cell-based. Summed up: as §1
For data set [6], the system named is primary mixed neuronal in vitro culture. The data set can be described thus: Acute toxicity, LDH release. The data set is classed as cell-based, rat. The method, then: In vitro experiments were carried out at the University of Prince Edward Island and approved by the Animal Care and Biosafety Committees, which adheres to the guidelines of the Canadian Council on Animal Care (protocol #14-041 and 15-028). Mixed neocortical cultures, containing both neurons and glia, were prepared from fetal rats at 17-18 days gestation. Briefly, embryonic tissue was extracted from untimed pregnant Sprague-Dawley rats by caesarean section and transferred to ice-cold Hanks Balanced Salt Solution (Gibco). Cortical brain tissue was carefully isolated by fine dissection using aseptic techniques. Cortices were minced in cold HBSS using a sterile razor blade prior to digestion with 0.0125 % trypsin. Dissociated cells were plated in poly-L-lysine (1 mg/ml, Sigma Aldrich) coated 96 well plates at a seeding density of 50000 cells/well in warm (37 °C) Dulbecco's Modified Eagle Medium (Gibco) containing 10 % iron-supplemented bovine calf serum (Hyclone) and 1 % antibiotic/antimycotic (Gibco). Cultures were allowed to adhere overnight in a humidified 37 °C incubator having 5 % CO2 and atmospheric oxygen. The following day, the media was replaced with warmed Neurobasal A Medium (Gibco) containing 0.5 mM L-glutamine (Gibco) and supplemented with 1 % B27, N2 and antibiotic/antimycotic (Gibco). Half-volume media changes were made every 4 days thereafter with experiments being carried out on 14-16 day old cultures. After 14 days in culture, the medium was replaced with deoxygenated unsupplemented glucose-free Neurobasal A containing either 10 or 100 µM of the novel compounds T3, T4, T5, T8, T9, T11, or T12. Control wells contained glucose-free medium plus vehicle - either 0.1 % ethanol or 0.1 % DMSO. Cultures were transferred to a humidified 37 °C incubator having 5 % CO2, 1.1 % O2 and the balance N2 for a period of 24 hours. Following OGD, an equal volume of normal supplemented Neurobasal A containing identical drug concentrations was added and cultures were transferred to normoxic conditions (5 % CO2 and atmospheric oxygen) for an additional 24 h. Cell viability was assessed by measuring LDH release from damaged cells. Control cultures were prepared in separate plates having supplemented Neurobasal A and being maintained in 5 % CO2 and atmospheric oxygen for the duration of the experiment. Toxicity was assessed in wells treated with 10 µM of each of the test compounds listed above. After 24 h an equal volume of culture media as added to each well to account for handling effects on experimental outcomes. Toxicity was assessed after an additional 24 h in culture by measuring LDH release from treated cells. At the end of each experiment, cell injury was assessed by measuring lactate dehydrogenase (LDH) released from damaged cells into the culture medium (Cytoscan LDH Assay, G Biosciences). LDH measurements represent the average of 7 replicate treatments/dose. The effect of OGD and drug treatments on LDH was expressed as a percent of LDH release compared to OGD and vehicle groups. […]
Lactate dehydrogenase (LDH) release in the medium is an enzymatic indicator that illustrates the loss of membrane integrity, apoptosis, or necrosis of a cell. Using a primary mixed neuronal in vitro culture, the cytotoxic effect of the chromene-based compounds (4a, 4c, 7c, 12c, 12k, 13g, and 13h) was assessed by lactate dehydrogenase (LDH) release from cells pretreated with different concentrations after 24 and 48 h of incubation (Figure 9A-C(Fig. 9)). […]
Background: Release of lactate dehydrogenase indicates damage to the cell membrane.

The subject of data set [7] is Geotricum candidum (RCMB 05097). Put plainly: Well diffusion assay (inhibition zone). The following applies: 5 mg/mL in DMSO; fungi; read-out: Inhibition Zone (IZ) diameter, G.C. The data set is classed as cell-based. The gist of the method:
as §1

Turning to `N#CC1=C(N)Oc2c(N)cc3ccccc3c2C1c1ccc(F)cc1` (centres unmarked) [4a, 3,5-diamino-1-(4-fluorophenyl)-1H-benzo[f]chromene-2-carbonitrile], the melting point is 193 °C. For the same compound, the zone of inhibition at 5000 µg/mL in data set [1] stood at 12.3 mm. Further, the zone of inhibition at 5000 µg/mL in data set [2] was 18.2 mm. In addition, the zone of inhibition at 5000 µg/mL in data set [3] was found to be 11.9 mm. Moreover, the zone of inhibition at 5000 µg/mL in data set [4] was 16.9 mm. In data set [5], the zone of inhibition at 5000 µg/mL was found to be 12.6 mm. In addition, the “LDH release more than vehicle” value in data set [6] (10 µM, 24 hrs of incubation) is 2-3 folds.

Compound `N#CC1=C(N)Oc2c(N)cc3ccccc3c2C1c1ccc(Cl)cc1` (centres unmarked) [4b, 3,5-diamino-1-(4-chlorophenyl)-1H-benzo[f]chromene-2-carbonitrile] came in with a melting point of 187 °C. For the same compound, in data set [1], the zone of inhibition at 5000 µg/mL was found to be 24.3 mm. Moreover, the zone of inhibition at 5000 µg/mL in data set [2] was 33.7 mm. Besides, in data set [3], the zone of inhibition at 5000 µg/mL is 18.3 mm. Also, in data set [7], the zone of inhibition at 5000 µg/mL worked out at 26.9 mm. Also, the zone of inhibition at 5000 µg/mL in data set [4] amounted to 22.6 mm. Also, in data set [5], the zone of inhibition at 5000 µg/mL stood at 17.6 mm.

As for `Cc1ccc(C2C(C#N)=C(N)Oc3c(N)cc4ccccc4c32)cc1` (centres unmarked) [4c, 3,5-diamino-1-(p-tolyl)-1H-benzo[f]chromene-2-carbonitrile], the melting point is 180 °C. Moreover, the zone of inhibition at 5000 µg/mL in data set [1] stood at 20.2 mm. Further, the zone of inhibition at 5000 µg/mL in data set [2] is 19.4 mm. Moreover, the zone of inhibition at 5000 µg/mL in data set [3] turned out to be 15.3 mm. For the same compound, in data set [7], the zone of inhibition at 5000 µg/mL was determined as 18.6 mm. Besides, the zone of inhibition at 5000 µg/mL in data set [4] was 18.2 mm. Also, in data set [5], the zone of inhibition at 5000 µg/mL came out at 16.9 mm. In addition, the “LDH release” value in data set [6] (10 µM, 24 hrs of incubation) is reported as “reduced the LDH release”. For the same compound, the “LDH release” value in data set [6] (100 µM, 24 hrs) is given as “ineffective”.

In the case of `N#CC1=C(N)Oc2c(ccc3c(N)cccc23)C1c1ccc(F)cc1` (centres unmarked) [7c], the zone of inhibition at 5000 µg/mL was 18.2 mm in data set [1]; 21.3 mm in data set [2]; 18.6 mm in data set [3]; 20.1 mm in data set [7]; 17.8 mm in data set [4]; 16.2 mm in data set [5]. Besides, the “LDH release more than vehicle” value in data set [6] (10 µM, 24 hrs of incubation) is recorded as 2-3 folds. Further, the “LDH release” value in data set [6] (100 µM, 24 hrs) is given as “more LDH release compared to the vehicle”.

`COc1ccc(N=Nc2cc3c(cc2O)OC(N)=C(C#N)C3c2ccc(F)cc2)cc1` (centres unmarked) [13b, 2-Amino-4-(4-fluoro-phenyl)-7-hydroxy-6-(4-methoxy-phenylazo)-4H-chromene-3-carbonitrile] showed a melting point of 272 °C. Further, the zone of inhibition at 5000 µg/mL in data set [1] was 16.3 mm. Further, the zone of inhibition at 5000 µg/mL in data set [2] came out at 19.7 mm. The zone of inhibition at 5000 µg/mL in data set [3] was 17.8 mm. The zone of inhibition at 5000 µg/mL in data set [7] worked out at 17.3 mm. In data set [4], the zone of inhibition at 5000 µg/mL came to 17.5 mm. The zone of inhibition at 5000 µg/mL in data set [5] turned out to be 15.2 mm.

Broadly, the melting point is the temperature of the solid-liquid transition.
